Results published in patent US6274594A, “Isoquinoline derivatives and their therapeutical use” (SmithKline Beecham p.l.c., priority 1997, dated 2001).

Legend:
[1] = target: novel receptor obtainable from rat forebrain tissue; experiment: [3H]-Compound A radioligand binding assay; conditions: competition with [3H]-Compound A (usually 20 nM)
Procedure: WO 92/22293 (SmithKline Beecham) discloses compounds having anti-convulsantactivity, including inter alia the compound trans-(+)-6-acetyl-4S-(4-fluorobenzoylamino)-3,4-dihydro-2,2-dimethyl-2H-1-benzopyran-3R-ol (hereinafter referred to as Compound A). […] The affinity of test compounds to the novel receptor site is assessed as follows.
Whole forebrain tissue is obtained from rats. The tissue is first homogenised in buffer (usually 50 mM Tris/HCl, pH 7.4). The homogenised tissue is washed by centrifugation and resuspension in the same buffer, then stored at -70° C. until used.
To carry out the radioligand binding assay, aliquots of tissue prepared as above (usually at a concentration of 1-2 mg protein/ml) are mixed with aliquots of [3H]-Compound A dissolved in buffer. The final concentration of [3H]-Compound A in the mixture is usually 20 nM. The mixture is incubated at room temperature for 1 hour. [3H]-Compound A bound to the tissue is then separated from unbound [3H]-Compound A by filtration through Whatman GF/B glass fibre filters. The filters are then washed rapidly with ice-cold buffer. The amount of radioactivity bound to the tissue trapped on the filters is measured by addition of liquid scintillation cocktail to the filters followed by counting in a liquid scintillation counter. […]

[2] = tested on: electrically-induced seizures (maximal electroshock seizure threshold); experiment: Maximal electroshock seizure (MEST) threshold test, rat model; format: in vivo; conditions: 2 mg/kg p.o., suspension in methyl cellulose, one hour post dosing, statistically significant
Procedure: The maximal electroshock seizure (MEST) threshold test in rodents is particularly sensitive for detecting potential anticonvulsant properties^1. In this model, anticonvulsant agents elevate the threshold to electrically-induced seizures whilst proconvulsants lower the seizure threshold.
Mice (naive male, Charles River, U.K. CD-1 strain, 25-30 g) are randomly assigned to groups of 10-20 and dosed orally or intraperitoneally at a dose volume of 10 ml/kg with various doses of compound (0.3-300 mg/kg) or vehicle. Mice are then subjected at 30 or 60 min post dose to a single electroshock (0.1 sec, 50 Hz, sine wave form) administered via corneal electrodes. The mean current and standard error required to induce a tonic seizure in 50% (CC50) of the mice in a particular treatment group is determined by the `up and down` method of Dixon and Mood (1948)^2. Statistical comparisons between vehicle- and drug-treated groups are made using the method of Litchfield and Wilcoxon (1949)^3.
The threshold for maximal (tonic hindlimb extension) electroshock seizures in male rats (Sprague Dawley, 80-150 g, 6 weeks old) was determined by a Hugo Sachs Electronik stimulator which delivered a constant current (0.3 sec duration; from 1-300 mA in steps of 5-20 mA). […]
The percentage increase or decrease in CC50 for each group compared to the control is calculated. […]

CN1CCc2ccc(NC(=O)N3CCc4ccccc43)cc2C1 [Example 1, 2,3-Dihydroindole-1-carboxylic Acid (2-methyl-1,2,3,4-tetrahydroisoquinolin-7-yl)amide]
pKi value [1]: greater than 8
increase in seizure threshold (CC50) compared to control [2]: 225%
